Earlier results in paper PMC4761099 (British Journal of Pharmacology, 2016).

Tested on: Ob/ob mice
Conditions: leptin mutant mice, acute setting; ref Kerr et al., 2011

Substance: GIP(8-42): literature GIP fragment (Kerr et al., 2011) (SDYSIAMDKIHQQDFVNWLLAQKGKKNDWKHNITQ; Gastric inhibitory polypeptide; UniProt P09681 59-93, looked up, fragment)
- antagonism of GIP(1–42) in vivo, in words: decreased insulin secretion and increased plasma glucose
